{
  "source": "ChEMBL document CHEMBL1122006",
  "about": "“Comparison of quantitative structure-activity relationships of the inhibition of leukemia cells in culture with the inhibition of dihydrofolate reductase from leukemia cells and other cell types” (1982)",
  "data": [
    {"tested_on": "L5178Y", "assay": "Concentration required for inhibition of murine leukemia L5178Y cells", "assay_type": "functional, Mus musculus", "values": [
      {"smiles": "CC1(C)N=C(N)N=C(N)N1c1cccc(OCCOc2cccc(C(F)(F)F)c2)c1", "Log 1/C": 7.37},
      {"smiles": "CC1(C)N=C(N)N=C(N)N1c1cccc(COc2cccc(NC(=N)S)c2)c1", "Log 1/C": 8.08},
      {"smiles": "CC1(C)N=C(N)N=C(N)N1c1cccc(COc2ccccc2)c1", "Log 1/C": 8.2},
      {"smiles": "CC1(C)N=C(N)N=C(N)N1c1cccc(COc2cccc(CO)c2)c1", "Log 1/C": 8.32},
      {"smiles": "CC1(C)N=C(N)N=C(N)N1c1cccc(F)c1", "Log 1/C": 7.94},
      {"smiles": "CC1(C)N=C(N)N=C(N)N1c1cccc(COc2cccc(Cl)c2)c1", "Log 1/C": 8.1},
      {"smiles": "CC1(C)N=C(N)N=C(N)N1c1cccc(OCCCCOc2cccc(C(F)(F)F)c2)c1", "Log 1/C": 7.14},
      {"smiles": "CC(C)c1cccc(OCc2cccc(N3C(N)=NC(N)=NC3(C)C)c2)c1", "Log 1/C": 8.13},
      {"smiles": "CC1(C)N=C(N)N=C(N)N1c1ccc(OCc2cccc(C(N)=O)c2)c(Cl)c1", "Log 1/C": 7.53},
      {"smiles": "COc1cccc(OCc2cccc(N3C(N)=NC(N)=NC3(C)C)c2)c1", "Log 1/C": 8.02},
      {"smiles": "CC(=O)Nc1cccc(OCc2cccc(N3C(N)=NC(N)=NC3(C)C)c2)c1", "Log 1/C": 8.66},
      {"smiles": "Cc1cccc(OCc2cccc(N3C(N)=NC(N)=NC3(C)C)c2)c1", "Log 1/C": 8.16},
      {"smiles": "CC1(C)N=C(N)N=C(N)N1c1cccc(C(O)c2ccccc2)c1", "note": "(stereo not drawn)", "Log 1/C": 6.41},
      {"smiles": "CCc1cccc(OCc2cccc(N3C(N)=NC(N)=NC3(C)C)c2)c1", "Log 1/C": 8.11},
      {"smiles": "CC1(C)N=C(N)N=C(N)N1c1cccc(CNc2cc(C(N)=O)cc(C(N)=O)c2)c1", "Log 1/C": 7.01},
      {"smiles": "CC(C)(C)c1cccc(OCc2cccc(N3C(N)=NC(N)=NC3(C)C)c2)c1", "Log 1/C": 7.3},
      {"smiles": "CCCCCCCCCCCCOc1cccc(N2C(N)=NC(N)=NC2(C)C)c1", "Log 1/C": 6.41},
      {"smiles": "CC1(C)N=C(N)N=C(N)N1c1cccc(COc2cccc(C#N)c2)c1", "Log 1/C": 8.09},
      {"smiles": "CC1(C)N=C(N)N=C(N)N1c1cccc(COc2cccc(NC(N)=O)c2)c1", "Log 1/C": 8.18},
      {"smiles": "CCCCCCCCCOc1cccc(N2C(N)=NC(N)=NC2(C)C)c1", "Log 1/C": 6.93},
      {"smiles": "CC1(C)N=C(N)N=C(N)N1c1cccc(Br)c1", "Log 1/C": 8.42},
      {"smiles": "CN(Cc1cnc2nc(N)nc(N)c2n1)c1ccc(C(=O)N[C@@H](CCC(=O)O)C(=O)O)cc1", "note": "[METHOTREXATE]", "Log 1/C": 8.89},
      {"smiles": "CC1(C)N=C(N)N=C(N)N1c1cccc(OCc2ccc(Cl)c(Cl)c2)c1", "Log 1/C": 7.15},
      {"smiles": "CC(=O)c1cccc(N2C(N)=NC(N)=NC2(C)C)c1", "Log 1/C": 6.96},
      {"smiles": "CC1(C)N=C(N)N=C(N)N1c1cccc(OCCCCOc2ccccc2)c1", "Log 1/C": 6.97},
      {"smiles": "CC1(C)N=C(N)N=C(N)N1c1cccc(OCCOc2ccccc2)c1", "Log 1/C": 7.34},
      {"smiles": "CC1(C)N=C(N)N=C(N)N1c1cccc(I)c1", "Log 1/C": 8.4},
      {"smiles": "CC(C)(C)c1cccc(N2C(N)=NC(N)=NC2(C)C)c1", "Log 1/C": 7.59},
      {"smiles": "CC1(C)N=C(N)N=C(N)N1c1cccc(C(N)=O)c1", "Log 1/C": 6.1},
      {"smiles": "CCOC(=O)c1cccc(N2C(N)=NC(N)=NC2(C)C)c1", "Log 1/C": 8.13},
      {"smiles": "CC1(C)N=C(N)N=C(N)N1c1cccc([N+](=O)[O-])c1", "Log 1/C": 7.66},
      {"smiles": "Cc1cccc(N2C(N)=NC(N)=NC2(C)C)c1", "Log 1/C": 8.01},
      {"smiles": "CC1(C)N=C(N)N=C(N)N1c1cccc(OCc2ccccc2)c1", "Log 1/C": 7.78}
    ]}
  ]
}
